# According to patent publication US20160303182A1, “USE OF PEPTIDES IN ANTIBIOTIC RESISTANCE” (priority 2013, published 2016):
# Bridges are numbered along the chain shown (N, C = ends). Where no end group is shown, it is not given here.
# Tests used:
# [1] = test system: methicillin sensitive S. aureus ATCC 25923 (MSSA); assay: CFU count after 24 h incubation with antibiotic alone or with grZ14s-nvCyc; type: cell-based, Staphylococcus aureus
# Method: (§1) Staphylococcus aureus ATCC 43300 (5×10^5 CFU/mL) (MRSA strain) was incubated in 1.5 mL Eppendorf tubes with either oxacillin alone or oxacillin with the grZ14s-nvCyc peptide (10 nM) (cyclized CSVHSFDYDWYNVC) for 24 hours at 37° C. with shaking (250 rpm). The solutions in the tubes were diluted ten-fold with phosphate buffered saline (PBS) by serial dilutions. The diluted solutions were then seeded on a blood agar plate and incubated at 37° C. for 24 hours. The results represent the number of Colony Forming Unit (CFU) counts on the blood agar plates.
# As a comparison, a strain of methicillin sensitive S. aureus ATCC 25923 (5×10^5 CFU/mL) was treated with oxacillin, alone or with the grZ14s-nvCyc (10 nM).
# (§2) A similar assay was performed with S. aureus ATCC 43300 at a concentration of 7×10^6 CFU/mL. The bacterial concentration in this assay is higher (˜7×10^6 CFU/mL).
# (§3) S. aureus ATCC 33591 (MRSA strain) (5×10^7 CFU/mL) and methicillin sensitive strain (MSSA) of S. aureus ATCC 25923 (1×10^8 CFU/mL) were incubated in 1.5 mL Eppendorf tubes with either oxacillin alone or oxacillin with the grZ14s-nvCyc (10 nM) for 24 hours at 37° C. with shaking (250 rpm). The solutions in the tubes were diluted ten-fold with PBS by serial dilutions. The diluted solutions were then seeded on a blood plate agar and incubated at 37° C. for 24 hours.
# [2] = test system: K. pneumoniae ATCC BAA 1705 (carbapenemase positive strain); assay: as above; type: cell-based, Klebsiella pneumoniae
# Method: K. pneumoniae ATCC BAA® 1705 (3×10^2 CFU/mL) (carbapenemase positive strain) (carbapenem-imipenem and ertapenem, amikacin, aztreonam, levofloxacin and ciprofloxacin-resistant strain) was incubated with imipenem, alone or with the grZ14s-nvCyc peptide (10 nM), for 24 hours at 37° C. with shaking (250 rpm). The solutions were then treated as described in the examples above. […]
# Similarly, K. pneumoniae ATCC BAA® 1705 (1×10^5 CFU/mL) was incubated with ciprofloxacin, alone or with grZ14s-nvCyc, as described in the Examples above. […]
# K. pneumoniae ATCC BAA® 1705 (2×10^6 CFU/mL) (carbapenem-imipenem and ertapenem, amikacin, aztreonam, levofloxacin and ciprofloxacin-resistant strain) was incubated with levofloxacin, alone or with grZ14s-nvCyc, as described in the Examples above.
# K. pneumoniae ATCC BAA® 1705 (1×10^5 CFU/mL) (carbapenem-imipenem and ertapenem, amikacin, aztreonam, levofloxacin and ciprofloxacin-resistant strain) was incubated with aztreonam, alone or with grZ14s-nvCyc, as described in the Examples above. […]
# [3] = test system: Enterococcus faecium ATCC 700221 (vancomycin, teicoplanin and tetracyclin resistant strain); assay: as above; type: cell-based; conditions: for bacteria killing concentration of tetracyclin lower with grZ14s-nvCyc than with tetracyclin alone: grZ14s-nvCyc (10 mN)
# Method: Enterococcus faecium ATCC 700221 (4×10^2 CFU/mL) (vancomycin, teicoplanin and tetracyclin resistant strain) was incubated in 1.5 mL Eppendorf tubes with either vancomycin, alone or with the grZ14s-nvCyc peptide (10 nM), for 24 hours at 37° C. with shaking (250 rpm). The solutions in the tubes were diluted ten-fold with phosphate buffered saline (PBS) by serial dilutions. The diluted solutions were then seeded on a blood plate agar and incubated at 37° C. for 24 hours.
# E. faecium ATCC 700221 (2×10^2 CFU/mL) (vancomycin, teicoplanin and tetracyclin resistant strain) was incubated with either teicoplanin, alone or with the grZ14s-nvCyc peptide (10 nM), for 24 hours at 37° C. with shaking (250 rpm). The solutions were treated as described above.
# E. faecium ATCC 700221 (1×10^3 CFU/mL) (vancomycin, teicoplanin and tetracyclin resistant strain) was incubated with tetracyclin, alone or with grZ14s-nvCyc ([…]), as described in the Examples above. […] Similarly, E. faecium ATCC 700221 (2×10^5 CFU/mL) (vancomycin, teicoplanin and tetracyclin resistant strain) was incubated with tetracyclin, alone or with grZ14s-nvCyc ([…]), as described in the Examples above.
# [4] = test system: S. aureus ATCC 33591 (MRSA strain); assay: as above; type: cell-based, Staphylococcus aureus; conditions: 10 nM grZ14s-nvCyc
# Method: as §3
# S. aureus ATCC 33591 (5×10^5 CFU/mL) (MRSA strain) was incubated in 1.5 mL Eppendorf tubes with oxacillin, alone or with the grZ14s-nvCyc peptide (10 nM), for 24 hours at 37° C. with shaking (250 rpm). […] The solutions in the tubes were diluted ten-fold with phosphate buffered saline (PBS) by serial dilutions. The diluted solutions were then seeded on a blood plate agar and incubated at 37° C. for 24 hours.
# [5] = test system: Staphylococcus aureus ATCC 43300 (MRSA strain); assay: as above; type: cell-based; conditions: for bacteria killing concentration of oxacillin with grZ14s-nvCyc versus oxacillin alone: 10 nM grZ14s-nvCyc
# Method: as §1, §2
# [6] = test system: Klebsiella pneumoniae ATCC 700603 (MDR resistant strain); assay: as above; type: cell-based
# Method: Klebsiella pneumoniae ATCC 700603 (MDR resistant strain: Resistant to ampicillin, aztreonam, cefoxitin, cefpodoxime, ceftazidime, chloramphenicol, piperacillin, tetracycline) (3×10^5 CFU/mL) was incubated with either ampicillin, alone or with the grZ14s-nvCyc peptide (10 nM), for 24 hours at 37° C. with shaking (250 rpm). The solutions in the tubes were diluted ten-fold with phosphate buffered saline (PBS) by serial dilutions. The diluted solutions were then seeded on a blood plate agar and incubated at 37° C. for 24 hours.
# A similar assay was performed with K. pneumoniae at lower bacterial concentrations of 2×10^3 CFU/mL.
# K. pneumoniae ATCC 700603 (MDR resistant strain: Resistant to ampicillin, aztreonam, cefoxitin, cefpodoxime, ceftazidime, chloramphenicol, piperacillin, tetracycline) (2×10^6 CFU/mL) was incubated with either cefoxitin, alone or with the grZ14s-nvCyc peptide (10 nM), for 24 hours at 37° C. with shaking (250 rpm). The solutions were then treated as described in the examples above.
# Similarly, K. pneumoniae ATCC 700603 (MDR resistant strain: Resistant to ampicillin, aztreonam, cefoxitin, cefpodoxime, ceftazidime, chloramphenicol, piperacillin, tetracycline) (4×10^6 CFU/mL) was incubated with chloramphenicol, alone or with grZ14s-nvCyc, as described in the Examples above.
# Similarly, K. pneumoniae ATCC 700603 (MDR resistant strain: Resistant to ampicillin, aztreonam, cefoxitin, cefpodoxime, ceftazidime, chloramphenicol, piperacillin, tetracycline) (1×10^3 CFU/mL) was incubated with chloramphenicol, alone or with grZ14s-nvCyc, as described in the Examples above.
# [7] = test system: S. aureus ATCC BAA 1708 (MRSA strain, mupA positive); assay: CFU count after incubation with mupirocin alone or with grZ14s-nvCyc; type: cell-based, Staphylococcus aureus; conditions: 1×10^5 CFU/mL; 10 nM grZ14s-nvCyc; FIG. 12
# Method: as §1
# S. aureus ATCC BAA® 1708 (MRSA strain, mupA positive) (1×10^5 CFU/mL) was incubated with mupirocin, alone or with grZ14s-nvCyc as described in the Examples above.
compound,measurement,setting,value
"Cc1onc(-c2ccccc2)c1C(=O)N[C@@H]1C(=O)N2[C@@H]1SC(C)(C)[C@@H]2C(=O)O [oxacillin, reference compound]",oxacillin concentration needed to kill the bacteria,"[1]; ~7×10^6 CFU/mL, oxacillin alone, FIG. 2",12.5 µg/mL
cyclized CSVHSFDYDWYNVC (disulfide 1-14 (inferred); not fully specified) [grZ14s-nvCyc],bacteria killing concentration of ciprofloxacin lower with grZ14s-nvCyc than with ciprofloxacin alone,"[2]; 1×10^5 CFU/mL, 10 nM grZ14s-nvCyc, FIG. 14",80%
same,aztreonam concentration at which aztreonam with grZ14s-nvCyc achieves bacteria killing,"[2]; 1×10^5 CFU/mL, 10 nM grZ14s-nvCyc, FIG. 19",1000 µg/mL
same,bacteria killing concentration of amikacin with grZ14s-nvCyc lower than with amikacin alone,"[2]; 1×10^6 CFU/mL, incubated with amikacin, alone or with grZ14s-nvCyc, FIG. 17",75%
same,bacteria killing concentration of levofloxacin with grZ14s-nvCyc lower than with levofloxacin alone,"[2]; 2×10^6 CFU/mL, 10 nM grZ14s-nvCyc, FIG. 18",30%
same,bacteria killing concentration of imipenem lower with grZ14s-nvCyc than in imipenem alone,"[2]; 3×10^2 CFU/mL, 10 nM grZ14s-nvCyc, FIG. 10",> 75%
same,bacteria killing concentration of tetracyclin lower with grZ14s-nvCyc than with tetracyclin alone,"[3]; 1×10^3 CFU/mL, FIG. 13a",60%
same,bacteria killing concentration of teicoplanin lower with grZ14s-nvCyc than with teicoplanin alone,"[3]; 2×10^2 CFU/mL, 10 nM grZ14s-nvCyc, FIG. 6",about 60%
same,bacteria killing concentration of tetracyclin lower with grZ14s-nvCyc than with tetracyclin alone,"[3]; 2×10^5 CFU/mL, FIG. 13b",~70%
same,bacteria killing concentration of vancomycin lower with grZ14s-nvCyc than with vancomycin alone,"[3]; 4×10^2 CFU/mL, 10 nM grZ14s-nvCyc, FIG. 5",about 50%
same,bacteria killing concentration of oxacillin with grZ14s-nvCyc versus oxacillin alone,"[4]; 5×10^5 CFU/mL, FIG. 4a",much lower
same,bacteria killing concentration of oxacillin in the presence of the peptide versus oxacillin alone,"[4]; 5×10^7 CFU/mL, FIG. 3",reduced to about half
same,bacteria killing concentration of oxacillin with grZ14s-nvCyc versus oxacillin alone,"[5]; 5×10^5 CFU/mL, 24 h, 37° C., FIG. 1a",much lower
same,bacteria killing concentration of oxacillin with grZ14s-nvCyc versus oxacillin alone,"[5]; 7×10^6 CFU/mL, FIG. 2",much lower
same,"oxacillin concentration needed to kill the bacteria, with grZ14s-nvCyc","[5]; ~7×10^6 CFU/mL, oxacillin with 10 nM grZ14s-nvCyc, FIG. 2",6.25 µg/mL
same,bacteria killing concentration of chloramphenicol with grZ14s-nvCyc lower than with chloramphenicol alone,"[6]; 1×10^3 CFU/mL, 10 nM grZ14s-nvCyc, FIG. 16",20%
same,bacteria killing concentration of ampicillin lower with grZ14s-nvCyc than with ampicillin alone,"[6]; 2×10^3 CFU/mL, 10 nM grZ14s-nvCyc, FIG. 8",100 µg/mL
same,bacteria killing concentration of cefoxitin lower with grZ14s-nvCyc than in cefoxitin alone,"[6]; 2×10^6 CFU/mL, 10 nM grZ14s-nvCyc, FIG. 9",> 80%
same,bacteria killing activity of ampicillin with grZ14s-nvCyc at lower concentrations,"[6]; 3×10^5 CFU/mL, 10 nM grZ14s-nvCyc, FIG. 7",~100%
same,bacteria killing by chloramphenicol with grZ14s-nvCyc,"[6]; 4×10^6 CFU/mL, 10 nM grZ14s-nvCyc, FIG. 15",achieves bacteria killing at a concentration where chloramphenicol alone does not achieve bacteria killing
same,difference between the activity of oxacillin with or without grZ14s-nvCyc,"[1]; 1×10^6 CFU/mL, 10 nM grZ14s-nvCyc, FIG. 4b",no significant difference
same,bacteria killing concentration of oxacillin in the presence of the peptide versus oxacillin alone,"[1]; 1×10^8 CFU/mL, 10 nM grZ14s-nvCyc, FIG. 3",reduced to about half
same,difference between the activity of oxacillin with or without grZ14s-nvCyc,"[1]; 5×10^5 CFU/mL, 10 nM grZ14s-nvCyc, FIG. 1b",no significant difference
same,bacterial load in the presence of a combination of mupirocin and grZ14s-nvCyc,[7],reduced by at least one order of magnitude
"C[C@H]1[C@H](NC(=O)/C(=N\OC(C)(C)C(=O)O)c2csc(N)n2)C(=O)N1S(=O)(=O)O [aztreonam, reference compound]",bacteria killing by aztreonam alone,"[2]; 1×10^3 CFU/mL, FIG. 19b",able achieve bacteria killing activity
same,bacteria killing by aztreonam alone,"[2]; 1×10^5 CFU/mL, at 1000 μg/ml aztreonam, FIG. 19",does not achieve bacteria killing
"O=C(N[C@H](CO)[C@H](O)c1ccc([N+](=O)[O-])cc1)C(Cl)Cl [chloramphenicol, reference compound]",bacteria killing by chloramphenicol alone,"[6]; 1×10^3 CFU/mL, FIG. 16",can achieve bacteria killing activity
same,bacteria killing by chloramphenicol alone,"[6]; 4×10^6 CFU/mL, at the concentration where the combination kills, FIG. 15",does not achieve bacteria killing
"CC1(C)S[C@@H]2[C@H](NC(=O)[C@H](N)c3ccccc3)C(=O)N2[C@H]1C(=O)O [ampicillin, reference compound]",bacteria killing by ampicillin alone,"[6]; 2×10^3 CFU/mL, FIG. 8",achieves bacteria killing with the antibiotic alone
same,bacterial killing by ampicillin alone,"[6]; 3×10^5 CFU/mL, even very high concentrations of ampicillin, FIG. 7",could not achieve bacterial killing
